{"source": "patent US9549553B2", "about": "“Active compound combinations having insecticidal properties” (BAYER CROPSCIENCE AKTIENGESELLSCHAFT, priority 2013, dated 2017)", "assay_type_in_all_cases": "in vivo", "key": {"[1]": {"system": "larvae of the diamondback moth (Plutella xylostella)", "assay": "Plutella xylostella - spray test (cabbage leaves)", "conditions": "mortality", "method": "To produce a suitable preparation of active compound, 1 part by weight of active compound is mixed with the stated amount of solvent and emulsifier, and the concentrate is diluted with emulsifier-containing water to the desired concentration Ammonium salt and/or penetration enhancer in a dosage of 1000 ppm are added to the desired concentration if necessary.\nCabbage leaves (Brassica oleracea) are treated by being sprayed with the preparation of the active compound of the desired concentration and are infested with larvae of the diamondback moth (Plutella xylostella).\nAfter the specified period of time, the mortality in % is determined. 100% means all the caterpillars have been killed; 0% means none of the caterpillars have been killed. The mortality values determined thus are recalculated using the Colby-formula (see sheet 1)."}, "[2]": {"system": "mustard beetle larvae (Phaedon cochleariae)", "assay": "Phaedon cochleariae - spray test, Example B-1 (Chinese cabbage leaf-disks)", "conditions": "mortality", "method": "(§1) To produce a suitable preparation of active compound, 1 part by weight of active compound is mixed with the stated amount of solvent and emulsifier, and the concentrate is diluted with emulsifier-containing water to the desired concentration. To produce a suitable preparation of a spore suspension the spores are diluted with emulsifier-containing water to the desired concentration.\nChinese cabbage (Brassica pekinensis) leaf-disks are sprayed with a preparation of the active ingredient of the desired concentration. Once dry, the leaf disks are infested with mustard beetle larvae (Phaedon cochleariae).\nAfter the specified period of time, mortality in % is determined. 100% means all beetle larvae have been killed and 0% means none of the beetle larvae have been killed. The mortality values determined thus are recalculated using the Colby-formula (see sheet 1)."}, "[3]": {"system": "green peach aphid (Myzus persicae)", "assay": "Myzus persicae - spray test, Example C-1 (Chinese cabbage leaf-disks)", "conditions": "mortality", "method": "To produce a suitable preparation of active compound, 1 part by weight of active compound is mixed with the stated amount of solvent and emulsifier, and the concentrate is diluted with emulsifier-containing water to the desired concentration.\nChinese cabbage (Brassica pekinensis) leaf-disks infected with all instars of the green peach aphid (Myzus persicae) are sprayed with a preparation of the active ingredient of the desired concentration.\nAfter the specified period of time, mortality in % is determined 100% means all aphids have been killed; 0% means none of the aphids have been killed. The mortality values determined thus are recalculated using the Colby-formula (see sheet 1)."}, "[4]": {"system": "two spotted spidermite (Tetranychus urticae)", "assay": "Tetranychus urticae - spray test, OP-resistant (French beans)", "conditions": "mortality, 1 g ai/ha", "method": "as §1\nFrench beans (Phaseolus vulgaris) which are heavily infested with all stages of the two spotted spidermite (Tetranychus urticae), are sprayed with a preparation of the active ingredient of the desired concentration.\nAfter the specified period of time, mortality in % is determined. 100% means all spider mites have been killed and 0% means none of the spider mites have been killed. The mortality values determined thus are recalculated using the Colby-formula (see sheet 1)."}, "[5]": {"system": "mustard beetle larvae (Phaedon cochleariae)", "assay": "Phaedon cochleariae - spray test, Example B-2 (cabbage leaves)", "conditions": "mortality", "method": "(§2) Solvent: 7 parts by weight of dimethylformamide\nEmulsifier: alkylaryl polyglycol ether\n(§3) To produce a suitable preparation of active compound, 1 part by weight of active compound is mixed with the stated amount of solvent and is diluted with water, containing an emulgator concentration of 1000 ppm, to the desired concentration. Further test concentrations are prepared by dilution with emulsifier containing water Ammonium salt and/or penetration enhancer in a dosage of 1000 ppm are added to the desired concentration if necessary.\nCabbage leaves (Brassica oleracea) are treated by being sprayed with the preparation of the active compound of the desired concentration and are infested with mustard beetle larvae (Phaedon cochleariae).\nAfter the specified period of time mortality in % is determined. 100% means all the beetle larvae have been killed and 0% means none of the beetle larvae have been killed. The mortality values determined thus are recalculated using the Colby-formula (see sheet 1)."}, "[6]": {"system": "green peach aphid (Myzus persicae)", "assay": "Myzus persicae - spray test, Example C-2 (cabbage leaves)", "conditions": "mortality, 0.5 ppm", "method": "as §2\nEmulsifier: alkylaryl polyglycolether\nas §3\nCabbage leaves (Brassica oleracea) which are heavily infested by the green peach aphid (Myzus persicae) are treated by being sprayed with the preparation of the active compound of the desired concentration.\nAfter the specified period of time, mortality in % is determined 100% means all the aphids have been killed; 0% means none of the aphids have been killed. The mortality values determined thus are recalculated using the Colby-formula (see sheet 1)."}, "[7]": {"system": "fall armyworm larvae (Spodoptera frugiperda)", "assay": "Spodoptera frugiperda - spray test (maize leaf sections)", "conditions": "mortality", "method": "To produce a suitable preparation of the active compound, 1 part by weight of active compound is mixed with the stated amount of solvent and emulsifier, and the concentrate is diluted with emulsifier-containing water to the desired concentration. To produce a suitable preparation of a spore suspension the spores are diluted with emulsifier-containing water to the desired concentration.\nMaize (Zea mais) leaf sections are sprayed with a preparation of the active ingredient of the desired concentration. Once dry, the leaf sections are infested with fall armyworm larvae (Spodoptera frugiperda).\nAfter the specified period of time, mortality in % is determined. 100% means all caterpillars have been killed and 0% means none of the caterpillars have been killed. The mortality values determined thus are recalculated using the Colby-formula (see sheet 1)."}}}
{"smiles": "CC1(C)[C@H](C(=O)O[C@H](C#N)c2cccc(Oc3ccccc3)c2)[C@@H]1/C=C(\\Cl)C(F)(F)F", "note": "(racemic) [Lambda-Cyhalothrin, lambda-Cyhalothrin]", "values": [{"measurement": "Efficacy in % after 3d", "setting": "[1]; 1 ppm", "result": 0, "unit": "%"}, {"measurement": "Efficacy in % after 6d", "setting": "[2]; 0.25 g ai/ha", "result": 0, "unit": "%"}, {"measurement": "Efficacy in % after 6d", "setting": "[3]; 0.125 g ai/ha", "result": 0, "unit": "%"}, {"measurement": "Efficacy in % after 6d", "setting": "[4]", "result": 0, "unit": "%"}]}
{"smiles": "CC1(C)C(C=C(Cl)Cl)C1C(=O)OC(C#N)c1ccc(F)c(Oc2ccccc2)c1", "note": "(stereo not drawn) [Beta-Cyfluthrin (II-11), beta-Cyfluthrin]", "values": [{"measurement": "Efficacy in % after 3d", "setting": "[5]; 1.2 ppm", "result": 0, "unit": "%"}, {"measurement": "Efficacy in % after 6d", "setting": "[6]", "result": 50, "unit": "%"}, {"measurement": "Efficacy in % after 6d", "setting": "[7]; 0.032 g ai/ha", "result": 0, "unit": "%"}]}
{"smiles": "Cc1cc(C(F)(C(F)(F)F)C(F)(F)F)ccc1NC(=O)c1cccc(Cl)c1C(=O)NC(C)(C)C#N", "note": "[(I-5)]", "values": [{"measurement": "Efficacy in % after 3d", "setting": "[1]; 0.25 ppm", "result": 0, "unit": "%"}, {"measurement": "Efficacy in % after 6d", "setting": "[2]; 2.5 g ai/ha", "result": 0, "unit": "%"}, {"measurement": "Efficacy in % after 6d", "setting": "[2]; 12 g ai/ha", "result": 0, "unit": "%"}, {"measurement": "Efficacy in % after 3d", "setting": "[5]; 1.2 ppm", "result": 0, "unit": "%"}, {"measurement": "Efficacy in % after 3d", "setting": "[5]; 4.8 ppm", "result": 50, "unit": "%"}, {"measurement": "Efficacy in % after 6d", "setting": "[3]; 1.25 g ai/ha", "result": 0, "unit": "%"}, {"measurement": "Efficacy in % after 6d", "setting": "[3]; 1.5 g ai/ha", "result": 0, "unit": "%"}, {"measurement": "Efficacy in % after 6d", "setting": "[3]; 15 g ai/ha", "result": 0, "unit": "%"}, {"measurement": "Efficacy in % after 6d", "setting": "[7]; 0.8 g ai/ha", "result": 33, "unit": "%"}]}
{"smiles": "CC1(C)[C@H](C(=O)O[C@H](C#N)c2cccc(Oc3ccccc3)c2)[C@@H]1C=C(Br)Br", "note": "[Deltamethrin]", "values": [{"measurement": "Efficacy in % after 6d", "setting": "[3]; 0.15 g ai/ha", "result": 0, "unit": "%"}, {"measurement": "Efficacy in % after 6d", "setting": "[7]; 0.25 g ai/ha", "result": 0, "unit": "%"}]}
